Assay results taken from patent publication EP0248972A2, “Ammoniummonofluorophosphates, process for their preparation and their use” (Benckiser-Knapsack GmbH, priority 1986, dated 1987).

Assay: Behaviour with water (emulsion formation)
Assay type: physicochemical
Settings: mit Wasser bei 20 C

CCCCCCCC/C=C\CCCCCCCCNCCCN [N-Oleyl-1,3-diammoniumpropanmonofluorophosphat]
Verhalten mit Wasser: stabile Emulsion
